Consider 5 compounds from US6894185B2, “Substituted chiral allosteric hemoglobin modifiers” (Allós Therapeutics, Inc., priority 1999, dated 2005).

One data set deals with T1, hemoglobin (Homo sapiens, UniProt P68871+P69905).
T1 construct: The whole blood samples were collected in heparinized tubes from healthy volunteers; from tissue; host or cells: human whole blood (heparinized) from healthy volunteers
The data set can be described thus: In vitro whole blood studies (multi-point tonometry and blood gas analysis). The class given is cell-based. Particulars: Table III. In a few lines: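 Heparinized human whole blood from healthy volunteers with effector (sodium salt) at 5.0 mM, incubated ~10–12 min at 37 °C in tonometers and equilibrated at 20%, 40% and 60% O2. pO2 and sO2 measured by blood gas analyzer and co-oximeter; P50 and Hill coefficient by non-linear regression.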

T1 sequence (P69905 2-142 limits assumed): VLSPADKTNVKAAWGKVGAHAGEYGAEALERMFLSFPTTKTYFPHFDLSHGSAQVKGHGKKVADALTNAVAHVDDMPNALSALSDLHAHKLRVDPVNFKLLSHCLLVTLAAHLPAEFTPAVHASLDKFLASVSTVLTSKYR
T1 sequence (P68871 2-147 limits assumed): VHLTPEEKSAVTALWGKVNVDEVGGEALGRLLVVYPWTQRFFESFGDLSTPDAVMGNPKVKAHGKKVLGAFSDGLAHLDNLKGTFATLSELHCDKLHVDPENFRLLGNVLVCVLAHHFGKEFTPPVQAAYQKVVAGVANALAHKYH

Compound `Cc1cc(C)cc(NC(=O)Cc2ccc(OC3(C(=O)N[C@@H](CO)C(=O)O)CCCC3)cc2)c1` [Compound 50, 1-[4-(((3,5-dimethylanilino)carbonyl)methyl)phenoxy]cyclopentanecarbonyl-L-serine] displayed a melting point of 58 to 59 °C. Moreover, at hemoglobin, the “Whole Blood Δp50 mm Hg” value turned out to be 5 mm Hg.
On to `Cc1cc(C)cc(NC(=O)Cc2ccc(OC3(C(=O)N[C@H](CO)C(=O)O)CCCC3)cc2)c1` [Compound 49, 1-[4-(((3,5-dimethylanilino)carbonyl)methyl)phenoxy]cyclopentanecarbonyl-D-serine], for which the melting point lay within 58 to 59 °C. Further, the “Whole Blood Δp50 mm Hg” value at hemoglobin is listed as 16 mm Hg.
The like results for `Cc1cc(C)cc(NC(=O)Cc2ccc(OC3(C(=O)N[C@@H](CCCCN)C(=O)O)CCCC3)cc2)c1` [Compound 62, 1-[4-(((3,5-dimethylanilino)carbonyl)methyl)phenoxy]cyclopentanecarbonyl-L-lysine] were, in that order, 124 to 125 °C and −0.6 mm Hg.
Consider `Cc1cc(C)cc(NC(=O)Cc2ccc(OC3(C(=O)N[C@@H](Cc4ccc(O)cc4)C(=O)O)CCCC3)cc2)c1` [Compound 54, 1-[4-(((3,5-dimethylanilino)carbonyl)methyl)phenoxy]cyclopentanecarbonyl-L-tyrosine], for which the melting point was 74 to 75 °C. Besides, the “Whole Blood Δp50 mm Hg” value at hemoglobin was 21 mm Hg.
In the case of `Cc1cc(C)cc(NC(=O)Cc2ccc(OC3(C(=O)N[C@@H](CC(C)C)C(=O)O)CCCC3)cc2)c1` [Compound 41, 1-[4-(((3,5-dimethylanilino)carbonyl)methyl)phenoxy]cyclopentanecarbonyl-L-leucine], the melting point lay in the range of 119 to 120 °C. Further, the “Whole Blood Δp50 mm Hg” value at hemoglobin was found to be 15 mm Hg.

One may read the melting point as the temperature of the solid-liquid transition.
